Tests used:
[1] = molecular target: bovine cardiac myofibrils (full-length cardiac myosin ATPase in the native sarcomere) (Bos taurus (Bovine), UniProt Q9BE39); test: Skinned bovine cardiac myofibril ATPase assay (PK/LDH-coupled); type: biochemical; conditions: Ca2+ activating to 75% of maximal rate
Summary of the method: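 Triton-skinned bovine left-ventricle myofibrils (1 mg/mL) in PM 12 buffer (12 mM PIPES, 2 mM MgCl2, pH 6.8) with 50 μM ATP, 0.6 mM EGTA and CaCl2 set for 50% or 75% activation. Steady-state ATPase inhibition followed by PK/LDH-coupled NADH oxidation at 340 nm.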

[2] = test system: rat cardiac contractility (left ventricle fractional shortening); test: Echocardiography of acute effect on rat cardiac contractility, continuous IV infusion; type: in vivo, Sprague Dawley rats; conditions: Rattus norvegicus, plasma concentration at which fractional shortening is 50% of pre-dose baseline, estimated, read-out: IC50 (Mean ± S.D.)
Experimental: Assessment of in vivo cardiac function by echocardiography was performed in male Sprague Dawley rats under isoflurane (1-3%) anesthesia. 2-D M-mode images of the left ventricle were acquired in the parasternal long-axis view before, during, and after administration of compounds by continuous IV infusion or oral gavage. In vivo fractional shortening was determined by M-mode image analysis with the following calculation: ((End diastolic diameter−end systolic diameter)/end diastolic diameter×100). For continuous IV infusion experiments, three pre-dose baseline M-mode images were taken at 1 minute intervals prior to infusion of compound. Compounds were formulated in 50% Propylene Glycol (PG): 16% Captisol: 10% dimethylacetamide (DMA) and delivered via a jugular vein catheter at the rate of 1 mL/kg/h. During infusion, M-mode images were taken at 5 minute intervals. The infusion stopped when fractional shortening reached up to a 60% reduction from baseline. Blood samples were taken to determine the plasma concentration of the compounds. Data was reported as an estimated IC50 value, which is the concentration at which fractional shortening is 50% of the pre-dose baseline contractility.

[3] = test system: R403Q mice (alpha cardiac myosin heavy chain mutation, familial hypertrophic cardiomyopathy model); test: Longitudinal echocardiography in R403Q mouse model of HCM; type: in vivo; conditions: compound formulated in chow for 24 weeks, echocardiography every 4 weeks, versus untreated R403Q mice
Experimental: Assessment over time of in vivo cardiac function by echocardiography was performed using a previously reported mouse model of familial hypertrophic cardiomyopathy, which was generated by an arginine to glutamine mutation at residue 403 (R403Q) of the alpha cardiac myosin heavy chain (MHC) gene (Geisterfer-Lowrance et al., Science. 1996 May 3; 272(5262):731-4). Cardiac dysfunction, fibrosis, and measures of cardiac hypertrophy (including ventricular wall thickness) increase with age in this mouse model (Geisterfer-Lowrance, supra; Jiang et al., Science. 2013, 342(6154):111-4).
R403Q mice received vehicle or Compound 142 formulated in chow for 24 weeks. Longitudinal echocardiography measurements were performed every 4 weeks. Echocardiography measurements were taken with mice under isoflurane (1-3%) anesthesia. 2-D M-mode images of the left ventricle were acquired in short-axis view. In vivo fractional shortening was determined by M-mode image analysis with the following calculation: ((End diastolic diameter−end systolic diameter)/end diastolic diameter×100).

Sequence of bovine cardiac myofibrils (full-length cardiac myosin ATPase in the native sarcomere) (Q9BE39 whole entry): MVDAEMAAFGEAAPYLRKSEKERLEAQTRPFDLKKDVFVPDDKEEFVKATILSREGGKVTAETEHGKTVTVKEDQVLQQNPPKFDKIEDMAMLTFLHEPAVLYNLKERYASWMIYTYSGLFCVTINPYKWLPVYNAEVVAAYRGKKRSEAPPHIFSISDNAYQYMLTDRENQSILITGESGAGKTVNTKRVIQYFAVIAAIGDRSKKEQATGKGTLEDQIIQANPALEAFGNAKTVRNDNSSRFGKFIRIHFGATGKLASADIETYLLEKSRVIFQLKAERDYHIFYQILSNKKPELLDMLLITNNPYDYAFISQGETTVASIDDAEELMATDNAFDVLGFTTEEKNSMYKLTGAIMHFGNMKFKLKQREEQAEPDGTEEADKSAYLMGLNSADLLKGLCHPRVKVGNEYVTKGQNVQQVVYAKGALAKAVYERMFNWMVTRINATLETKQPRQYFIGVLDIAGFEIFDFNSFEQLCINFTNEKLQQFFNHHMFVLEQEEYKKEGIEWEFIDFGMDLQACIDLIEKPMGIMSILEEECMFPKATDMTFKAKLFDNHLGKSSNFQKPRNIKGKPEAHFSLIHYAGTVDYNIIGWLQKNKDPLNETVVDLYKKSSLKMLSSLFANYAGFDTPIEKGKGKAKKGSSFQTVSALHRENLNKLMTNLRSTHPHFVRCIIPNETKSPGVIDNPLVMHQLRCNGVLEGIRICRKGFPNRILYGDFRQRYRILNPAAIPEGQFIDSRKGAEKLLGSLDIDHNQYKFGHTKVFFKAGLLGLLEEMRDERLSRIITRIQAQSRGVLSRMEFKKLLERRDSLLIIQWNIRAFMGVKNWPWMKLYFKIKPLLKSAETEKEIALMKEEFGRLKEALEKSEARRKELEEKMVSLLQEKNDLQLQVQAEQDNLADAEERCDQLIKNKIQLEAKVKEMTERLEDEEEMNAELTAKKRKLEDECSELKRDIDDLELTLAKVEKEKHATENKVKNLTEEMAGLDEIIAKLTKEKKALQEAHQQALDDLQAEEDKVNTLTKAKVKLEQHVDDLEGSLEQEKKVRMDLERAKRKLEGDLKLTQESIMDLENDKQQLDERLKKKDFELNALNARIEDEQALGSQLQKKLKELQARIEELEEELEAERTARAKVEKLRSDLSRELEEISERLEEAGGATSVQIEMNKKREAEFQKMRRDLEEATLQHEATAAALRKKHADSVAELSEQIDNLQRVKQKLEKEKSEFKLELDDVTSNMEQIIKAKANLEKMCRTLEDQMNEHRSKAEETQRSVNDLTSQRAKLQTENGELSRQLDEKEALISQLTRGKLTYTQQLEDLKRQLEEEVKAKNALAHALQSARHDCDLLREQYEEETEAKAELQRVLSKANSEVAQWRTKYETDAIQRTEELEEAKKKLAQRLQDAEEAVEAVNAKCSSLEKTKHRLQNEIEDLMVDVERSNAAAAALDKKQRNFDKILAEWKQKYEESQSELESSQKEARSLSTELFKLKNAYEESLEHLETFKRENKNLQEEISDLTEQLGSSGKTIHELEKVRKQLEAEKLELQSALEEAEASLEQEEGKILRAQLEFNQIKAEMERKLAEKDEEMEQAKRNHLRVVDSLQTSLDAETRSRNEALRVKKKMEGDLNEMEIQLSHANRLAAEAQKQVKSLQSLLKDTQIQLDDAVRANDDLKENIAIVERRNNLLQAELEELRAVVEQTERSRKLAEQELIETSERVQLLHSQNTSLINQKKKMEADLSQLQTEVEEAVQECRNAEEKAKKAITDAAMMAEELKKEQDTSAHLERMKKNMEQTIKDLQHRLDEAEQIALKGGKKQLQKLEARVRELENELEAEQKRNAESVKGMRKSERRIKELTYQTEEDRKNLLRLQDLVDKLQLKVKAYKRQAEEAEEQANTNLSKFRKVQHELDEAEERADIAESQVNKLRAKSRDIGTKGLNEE
Sequence of bovine cardiac myofibrils (full-length cardiac myosin ATPase in the native sarcomere) (P85100 whole entry partner): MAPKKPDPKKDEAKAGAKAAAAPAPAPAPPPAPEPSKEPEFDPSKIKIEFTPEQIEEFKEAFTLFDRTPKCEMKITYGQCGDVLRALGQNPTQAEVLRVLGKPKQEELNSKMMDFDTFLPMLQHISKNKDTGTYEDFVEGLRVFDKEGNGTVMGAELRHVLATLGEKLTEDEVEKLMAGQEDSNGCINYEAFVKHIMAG
Sequence of bovine cardiac myofibrils (full-length cardiac myosin ATPase in the native sarcomere) (Q3SZE5 whole entry partner): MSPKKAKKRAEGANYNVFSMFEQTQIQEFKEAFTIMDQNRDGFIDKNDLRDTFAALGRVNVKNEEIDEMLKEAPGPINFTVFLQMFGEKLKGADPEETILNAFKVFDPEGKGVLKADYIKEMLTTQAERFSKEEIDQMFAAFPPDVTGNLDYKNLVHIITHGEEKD

CDMF75 IC15 ([1]; concentration giving 15% inhibition): 0.5 µM | IC50 ([1]; read-out: CDMF75 IC50): 2.4 µM | IC50 [2]: 2.7 ± 0.12 µM
Compound: CC(C)c1nc(-c2ccc3c(c2)CC[C@H]3NC(=O)c2nnn(C)n2)no1 [Compound 142, (R)—N-(5-(5-isopropyl-1,2,4-oxadiazol-3-yl)-2,3-dihydro-1H-inden-1-yl)-2-methyl-2H-tetrazole-5-carboxamide]
septal and left ventricular posterior wall thickness [3]: attenuated increases in septal and left ventricular posterior wall thickness
